ChEMBL document CHEMBL3045923, “Using a selectivity index to evaluate logarithmic spraying in grass seed crops” (Pest Manag Sci, 2009)

Key:
[1] = Selectivity index, ratio of ED10 for Festuca rubra L. to ED90 for Poa pratensis subsp. Pratensis
Festuca rubra [2] = experiment: Toxicity against Festuca rubra applied using logarithmic sprayer; format: organism-based; details: in vivo
[3] = system: Poa pratensis subsp. pratensis; experiment: Herbicidal activity against Poa pratensis subsp. pratensis applied using logarithmic sprayer; format: functional
[4] = Ratio of ED50 for Festuca pratensis to ED50 for Poa pratensis subsp. Pratensis
[5] = Ratio of ED50 for Festuca rubra L. to ED50 for Poa pratensis subsp. Pratensis
[6] = Ratio of ED50 for Festuca arundinacea to ED50 for Poa pratensis subsp. Pratensis
Festuca rubra [7] = experiment: Toxicity against Festuca rubra applied applied during spring season using logarithmic sprayer; format: organism-based; details: in vivo
[8] = system: Poa pratensis subsp. pratensis; experiment: Herbicidal activity against Poa pratensis subsp. pratensis applied during spring season using logarithmic sprayer; format: functional
[9] = Ratio of ED50 for Lolium perenne to ED50 for Poa pratensis subsp. Pratensis

Structure (SMILES)	ED50 (Festuca rubra [2])	ED50 [3]	also measured
C#CCOC(=O)[C@@H](C)Oc1ccc(Oc2ncc(Cl)cc2F)cc1 [CLODINAFOP PROPARGYL]	0.923 kg/ha	0.192 kg/ha	Selectivity Index [1]: > 1
CCOC(=O)[C@@H](C)Oc1ccc(Oc2nc3ccc(Cl)cc3o2)cc1 [FENOXAPROP-P-ETHYL]	1.137 kg/ha	0.408 kg/ha	Ratio ED50 [4]: > 2; Ratio ED50 [5]: > 2; Ratio ED50 [6]: > 2; ED90 [3]: 0.68 kg/ha
COc1cc(OC)nc(NC(=O)NS(=O)(=O)c2nc(C(F)(F)F)ccc2C(=O)O)n1 [FLUPYRSULFURON]	0.024 kg/ha	0.017 kg/ha	Ratio ED50 [5]: > 2; ED50 (Festuca rubra [7]): 0.04 kg/ha; ED50 [8]: 0.019 kg/ha
O=C(O)CNCP(=O)(O)O [GLYPHOSATE]	0.263 L/ha	–	–
COc1nc(C)nc(NC(=O)NS(=O)(=O)c2cc(I)ccc2C(=O)O)n1 [IODOSULFURON]	0.367 kg/ha	0.184 kg/ha	–
CCC(CC)Nc1c([N+](=O)[O-])cc(C)c(C)c1[N+](=O)[O-] [PENDIMETHALIN]	3.531 L/ha	1.761 L/ha	–
CCCN(CCC)C(=O)SCc1ccccc1 [PROSULFOCARB]	–	2.337 kg/ha	–
CCS(=O)(=O)c1nc2ccccn2c1S(=O)(=O)NC(=O)Nc1nc(OC)cc(OC)n1 [SULFOSULFURON]	0.007 kg/ha	0.014 kg/ha	Ratio ED50 [9]: > 1
